The assay deals with T1, SMARCA2 (Homo sapiens, UniProt P51531).
T1 construct: endogenous in cells; host or cells: HT1080 (CRISPR HiBiT knock-in clone, generated in house)
Nature of the assay: SMARCA2 HiBiT degradation assay (cellular). Type of assay: cell-based. Particulars: table head names A549; for DC50: 6 h incubation, HiBiT-tagged SMARCA2, luminescence read-out, read-out: HiBit A549 SMARCA2 IP (nM) 6 h; for Emax: A549, 6 h incubation, Emax = amount of residual protein remaining in the cell following compound treatment. (In general: With HiBiT, luminescence reflects the tagged protein that the partner subunit can reach.)

For seven compounds, DC50 and Emax results are on record in patent US20230024096A1, “BIFUNCTIONAL COMPOUNDS FOR THE TREATMENT OF CANCER” (Hoffmann-La Roche Inc., priority 2019, published 2023).

The Emax is the size of the effect at its maximum, as opposed to the concentration needed.

T1 sequence (P51531 whole entry): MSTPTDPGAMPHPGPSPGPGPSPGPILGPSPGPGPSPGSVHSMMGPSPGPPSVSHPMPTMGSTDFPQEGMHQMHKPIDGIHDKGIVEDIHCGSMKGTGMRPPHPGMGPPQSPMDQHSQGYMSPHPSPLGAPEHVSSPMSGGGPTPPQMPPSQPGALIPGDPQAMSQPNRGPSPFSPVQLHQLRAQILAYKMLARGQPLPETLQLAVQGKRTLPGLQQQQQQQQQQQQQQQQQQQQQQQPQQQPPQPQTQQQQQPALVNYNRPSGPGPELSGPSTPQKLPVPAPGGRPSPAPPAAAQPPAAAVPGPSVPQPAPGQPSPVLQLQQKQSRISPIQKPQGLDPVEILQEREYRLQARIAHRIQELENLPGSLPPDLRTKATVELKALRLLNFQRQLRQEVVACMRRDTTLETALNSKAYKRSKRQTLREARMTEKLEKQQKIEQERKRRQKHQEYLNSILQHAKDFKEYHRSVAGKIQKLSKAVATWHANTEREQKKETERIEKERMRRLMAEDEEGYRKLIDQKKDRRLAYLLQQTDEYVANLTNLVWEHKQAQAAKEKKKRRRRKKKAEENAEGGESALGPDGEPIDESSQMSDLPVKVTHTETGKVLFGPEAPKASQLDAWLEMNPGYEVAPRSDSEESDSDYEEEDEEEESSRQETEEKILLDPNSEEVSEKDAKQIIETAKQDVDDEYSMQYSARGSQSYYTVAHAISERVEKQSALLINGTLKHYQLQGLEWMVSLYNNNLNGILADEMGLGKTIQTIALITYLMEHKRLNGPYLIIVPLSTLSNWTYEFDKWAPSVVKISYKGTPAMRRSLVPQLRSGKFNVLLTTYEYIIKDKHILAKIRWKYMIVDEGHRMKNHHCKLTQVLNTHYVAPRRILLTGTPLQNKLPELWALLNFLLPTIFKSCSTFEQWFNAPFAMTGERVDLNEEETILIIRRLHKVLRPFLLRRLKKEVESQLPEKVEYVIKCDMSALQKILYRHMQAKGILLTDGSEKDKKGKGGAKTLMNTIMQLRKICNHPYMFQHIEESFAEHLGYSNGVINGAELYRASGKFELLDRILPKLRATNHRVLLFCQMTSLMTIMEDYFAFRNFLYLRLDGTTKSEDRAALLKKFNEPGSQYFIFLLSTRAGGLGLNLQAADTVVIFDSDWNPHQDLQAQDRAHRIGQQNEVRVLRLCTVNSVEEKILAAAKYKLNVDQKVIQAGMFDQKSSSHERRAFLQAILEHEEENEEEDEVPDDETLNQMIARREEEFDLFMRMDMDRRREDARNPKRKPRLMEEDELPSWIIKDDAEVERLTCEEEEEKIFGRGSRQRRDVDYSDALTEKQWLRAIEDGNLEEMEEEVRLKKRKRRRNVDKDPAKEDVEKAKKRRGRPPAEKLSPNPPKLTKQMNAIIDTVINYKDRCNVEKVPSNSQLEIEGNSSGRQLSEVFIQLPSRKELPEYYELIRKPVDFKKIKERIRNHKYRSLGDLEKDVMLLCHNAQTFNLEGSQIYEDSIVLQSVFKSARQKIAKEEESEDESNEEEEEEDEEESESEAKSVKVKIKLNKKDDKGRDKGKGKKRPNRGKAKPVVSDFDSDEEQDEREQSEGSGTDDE

`Nc1nnc(-c2ccccc2O)cc1N1CC(Oc2cccc(C(=O)N3CCN(C(=O)CCCCCCNc4cccc5c4C(=O)N(C4CCC(=O)NC4=O)C5=O)CC3)c2)C1` (centres unmarked) [Example 145, 4-[[7-[4-[3-[1-[3-amino-6-(2-hydroxyphenyl)pyridazin-4-yl]azetidin-3-yl]oxybenzoyl]piperazin-1-yl]-7-oxo-heptyl]amino]-2-(2,6-dioxo-3-piperidyl)isoindoline-1,3-dione]: the DC50 turned out to be 928 nM and the Emax worked out at 69%.

For the compound `Nc1nnc(-c2ccccc2O)cc1N1CC2CCC(C1)N2c1cccc(OCCN2CCN(C(=O)CCNC(=O)C3CCN(c4ccc5c(c4)C(=O)N(C4CCC(=O)NC4=O)C5=O)CC3)CC2)c1` (racemic) [Example 42, rac-N-[3-[4-[2-[3-[3-[3-amino-6-(2-hydroxyphenyl)pyridazin-4-yl]-3,8-diazabicyclo[3.2.1]octan-8-yl]phenoxy]ethyl]piperazin-1-yl]-3-oxo-propyl]-1-[2-(2,6-dioxo-3-piperidyl)-1,3-dioxo-isoindolin-5-yl]piperidine-4-carboxamide], the DC50 worked out at 519 nM and the Emax was 49%.

On to `Nc1nnc(-c2ccccc2O)cc1N1CCC(C(=O)NCC2CCN(CC3CCN(c4ccc5c(c4)C(=O)N(C4CCC(=O)NC4=O)C5=O)CC3)CC2)(c2ccccc2)C1` (stereo not drawn) [Example 124, 1-[3-amino-6-(2-hydroxyphenyl)pyridazin-4-yl]-N-[[1-[[l-[2-(2,6-dioxo-3-piperidyl)-1,3-dioxo-isoindolin-5-yl]-4-piperidyl]methyl]-4-piperidyl]methyl]-3-phenyl-pyrrolidine-3-carboxamide], for which the DC50 was found to be 272 nM and the Emax worked out at 63%.

For the compound `Nc1nnc(-c2ccccc2O)cc1N1CCC(C(=O)N2CCC(C(=O)N3CCC(c4ccc(NC5CCC(=O)NC5=O)cn4)CC3)CC2)(c2ccccc2)CC1` (centres unmarked) [Example 177, 3-((6-(1-(1-(1-(3-amino-6-(2-hydroxyphenyl)pyridazin-4-yl)-4-phenylpiperidine-4-carbonyl)piperidine-4-carbonyl)piperidin-4-yl)pyridin-3-yl)amino)piperidine-2,6-dione], the DC50 was determined as 174 nM and the Emax was determined as 69%.

Regarding `Nc1nnc(-c2ccccc2O)cc1N1CCC(NC(=O)CC2CCN(C(=O)C3CCN(c4ccc5c(c4)C(=O)N(C4CCC(=O)NC4=O)C5=O)CC3)CC2)(c2ccccc2)CC1` (centres unmarked) [Example 184, N-[1-[3-amino-6-(2-hydroxyphenyl)pyridazin-4-yl]-4-phenyl-4-piperidyl]-2-[1-[1-[2-(2,6-dioxo-3-piperidyl)-1,3-dioxo-isoindolin-5-yl]piperidine-4-carbonyl]-4-piperidyl]acetamide], the DC50 was 494 nM and the Emax was determined as 65%.

Turning to `Nc1nnc(-c2ccccc2O)cc1N1CC2CCC(C1)N2c1cccc(CN2CCC(C(=O)N3CCC(c4ccc(OC5CCC(=O)NC5=O)cc4)CC3)CC2)c1` (racemic) [Example 92, rac-3-[4-[1-[1-[[3-[3-[3-amino-6-(2-hydroxyphenyl)pyridazin-4-yl]-3,8-diazabicyclo[3.2.1]octan-8-yl]phenyl]methyl]piperidine-4-carbonyl]-4-piperidyl]phenoxy]piperidine-2,6-dione], the DC50 is 17 nM and the Emax worked out at 41%.

As to `Nc1nnc(-c2ccccc2O)cc1N1CC2CCC(C1)N2c1cccc(OCCN2CCN(C(=O)C3CC4(C3)CN(c3ccc5c(c3)C(=O)N(C3CCC(=O)NC3=O)C5=O)C4)CC2)c1` (racemic) [Example 61, rac-5-[6-[4-[2-[3-[3-[3-amino-6-(2-hydroxyphenyl)pyridazin-4-yl]-3,8-diazabicyclo[3.2.1]octan-8-yl]phenoxy]ethyl]piperazine-1-carbonyl]-2-azaspiro[3.3]heptan-2-yl]-2-(2,6-dioxo-3-piperidyl)isoindoline-1,3-dione], the DC50 came to 100 nM and the Emax was determined as 53%.
